Data taken from patent publication US20100099629A1, “OPHTHALMOLOGICAL COMPOSITION” (Nihon Tenganyaku Kenkyusho Co., LTD., priority 2002, published 2010).
Marks after values point to notes of the source that are not given here.

Assays:
[1] = tested on: rabbit corneal wound model; experiment: Corneal wound healing promotion action 1 (in vivo), wound of approximately 6 mm; conditions: 5 μM eye drop, 30 μl instillation
Description: Using a male Japanese white rabbit, a wound of approximately 6 mm in diameter was produced in the cornea by inducing corneal epithelial abrasion in accordance with the method of Cintron et al. (Ophthalmic Res., 11, pp. 90-96 (1979)). The wound area was measured using the fluorescein-stained area as an index. The effects of the test compound on corneal wound healing were examined.
The eye drops containing the respective concentrations of the test compound were instilled (30 μl at a time) at 0, 3, 6, 9, 12, 18, 24, 27, 30, 33, 36, 42, and 48 hours after inducing corneal epithelial abrasion. In measuring the wound area, fluorescein staining was carried out and a photograph of the cornea was measured. The fluorescein-stained area of the photographed cornea was computed using an image analysis processing system.
(§1) In Tables 1 and 2, the respective values indicate the mean value±standard deviation (n=6). Statistical analysis was carried out using Dunnett's multiple comparison with respect to PBS with the area of the corneal wound portion immediately after (0 hours after) corneal epithelial abrasion being set to 100% (*p<0.05, **p<0.01; vs. control).

[2] = tested on: rabbit corneal wound model; experiment: Corneal wound healing promotion action 2 (in vivo), wound of approximately 8 mm; conditions: 0.3% eye drop, 25 μl instillation
Description: Using the same method as (2) above, corneal epithelial abrasion was induced in a Japanese white rabbit to produce a wound of approximately 8 mm in diameter in the cornea. The wound area was measured using the fluorescein-stained area as an index to examine the effects on corneal wound healing.
The eye drops containing the respective concentrations of the test compound were instilled (25 μl at a time) at 0, 6, 12, 18, 24, 30, 36, 42, 48, and 54 hours after induction corneal epithelial abrasion. In measuring the wound area, fluorescein staining was carried out and a photograph of the cornea was measured. The fluorescein-stained area of the photographed cornea was computed using an image analysis processing system.
as §1, with “Tables 3” for “Tables 1”, “and 4,” for “and 2,”, “to physiological saline” for “to PBS”

| Substance | Healing ratio (%) ([1]; 0 hr (baseline)) | Healing ratio (%) ([1]; 6 hr) | Healing ratio (%) ([1]; 12 hr) | Healing ratio (%) ([1]; 24 hr) | Healing ratio (%) ([1]; 36 hr) | Healing ratio (%) ([1]; 48 hr) | Healing ratio (%) ([2]; 0 hr (baseline)) | Healing ratio (%) ([2]; 12 hr) | Healing ratio (%) ([2]; 18 hr) | Healing ratio (%) ([2]; 24 hr) | Healing ratio (%) ([2]; 30 hr) |
| --- | --- | --- | --- | --- | --- | --- | --- | --- | --- | --- | --- |
| EGF: polypeptide with a molecular weight of 6000, mitosis-promoting growth factor for corneal epithelium | 0 | 14.49 ± 3.42** % | 31.63 ± 1.29** % | 70.78 ± 6.91** % | 96.41 ± 3.97* % | 99.58 ± 1.03 |  |  |  |  |  |
| hyaluronic acid |  |  |  |  |  |  | 0 | 13.98 ± 4.88* % | 28.45 ± 3.37* % | 60.78 ± 8.07** % | 60.78 ± 8.07* % |
